Measured values as given in patent publication US6716872B2, “Substituted pyrrolidine-2,3,4-trione 3-oxime derivatives which are active as NMDA receptor antagonists” (Gruenenthal GmbH, priority 1999, dated 2004).

How the values were obtained:
male NMRI mice = test: Phenylquinone-induced writhing test in the mouse; assay type: in vivo
Protocol: The study of the analgesic activity was also carried out in the phenylquinone-induced writhing in the mouse (modified by I. C. Hendershot et al, (1959) J. Pharmacol. Exp. Ther., vol. 125, pp. 237-240). Male NMRI mice weighing 25 to 30 g (Iffa, Credo, Belgium, were used for this. Groups of 10 animals per substance dose received 0.3 ml/mouse of a 0.02% aqueous solution of phenylquinone (phenylbenzoquinone, Sigma, Deisenhofen; preparation of the solution with the addition of 5% ethanol and storage in a water bath at 45° C.) administered intraperitoneally 10 minutes after intravenous administration of the particular compound. The animals were placed individually in observation cages. The number of pain-induced stretching movements (so-called writhing reactions=straightening of the body with stretching of the hind extremities) was counted by means of a push-button counter for 5 to 20 minutes after the administration of phenylquinone. Animals which received only physiological saline solution were also run as a control. All the substances were tested in the standard dosage of 10 mg/kg of body weight of the mouse. The percentage inhibition (% inhibition) of the writhing reaction by a substance was calculated according to the following equation: [formula]
For some of the compounds according to the invention the ED50 values with the 95% confidence range of the writhing reaction were calculated by means of regression analysis (evaluation program from Martens EDV Service, Eckental) from the dose-dependent decrease in the writhing reactions compared with phenylquinone control groups investigated in parallel.
The study of the analgesic activity was carried out in the phenylquinone-induced writhing in mice as described above.

[1] = molecular target: T1, glycine binding site of the NMDA receptor channel (Rattus norvegicus, UniProt P35439); test: Receptor binding test, displacement of (3H)-MDL 105.519 on rat cerebral membrane homogenates; details: rat cortex and hippocampus membranes, 1 nmol/l (3H)-MDL 105.519; Ki from IC50 by Cheng-Prusoff
T1 construct: from tissue; host or cells: rat brain cortex and hippocampus membrane homogenate (male Wistar rats, Charles River)
Protocol: Studies for determination of the affinity of the substituted pyrrolidine-2,3,4-trione 3-oxime derivatives of the general formula I according to the invention for the glycine binding site of the NMDA receptor channel were carried out on cerebral membrane homogenates (homogenate of the cortex and hippocampus area from the brain of male rats, Wistar strain, Charles River, WIGA GmbH, Sulzbach, Germany) by the method of Baron B. M. et al, J. Pharmacol. Exp. Ther., vol. 279, pp.62-68 (1996). […]
In the binding test, 50 mmol/l TRIS-acetate buffer pH 7.0 was employed as the buffer and 1 nmol/l (^3H)-MDL 105.519 (Baron B. M. et al, J. Pharmacol. Exp. Ther., vol. 279, pp. 62-68 (1996)) was employed as the radioactive ligand. The proportion of non-specific binding was determined in the presence of 1 mmol/l glycine.
In further batches, the compounds according to the invention were added in concentration series and the displacement of the radioactive ligand from its specific binding to the glycine binding site of the NMDA receptor channel was determined. […]

male albino mice (NMRI) = test: Formalin test in mice, second (late) phase; assay type: in vivo; details: second (late) phase of formalin test
Protocol: The studies for determination of the antinociceptive action of the compounds according to the invention were carried out in the formalin test in male albino mice (NMRI, 25-35 g, Iffa Credo, Belgium).
The compounds according to the invention were investigated in the second phase of the formalin test to obtain information on the actions of the compounds according to the invention on chronic/inflammatory pain.
By a single subcutaneous formalin injection (20 μl, 1% aqueous solution) into the dorsal side of the right hind paw of freely mobile test animals, a nociceptive reaction was induced, which manifests itself in significant licking and biting of the paw affected.
For the investigation period in the second (late) phase of the formalin test, the nociceptive behavior was recorded continuously by observing the animals. […] After injection of substances which have an antinociceptive action in the formalin test, the modes of behaviour described for the animals are reduced, and possibly even eliminated. […] The behaviour of the rats after administration of the substance was compared with a control group (10 mice per substance dose).
On the basis of the quantification of the pain properties, the action of the substance in the formalin test was determined as a change from the control in per cent. The ED50 calculations were made by means of regression analysis. […]

Compound | % inhibition of the writhing reaction at 10 mg/kg intravenously (male NMRI mice) | melting point | Ki [1] | % change from the control at 10 mg/kg (male albino mice (NMRI))
O=C1NC(=Cc2cccc(Cl)c2Cl)C(=O)C1=NO [Example 6, 5-(2,3-Dichlorobenzylidene)-pyrrolidine-2,3,4-trione 3-oxime] | 52% |  |  | 
O=C1NC(=Cc2ccc(Cl)cc2Cl)C(=O)C1=NO [Example 7, 5-(2,4-Dichlorobenzylidene)-pyrrolidine-2,3,4-trione 3-oxime] | 46% | 180 °C |  | 
O=C1NC(=Cc2ccc(Cl)cc2)C(=O)C1=NO [Example 5, 5-(4-Chlorobenzylidene)-pyrrolidine-2,3,4-trione 3-oxime] | 50% | 190 °C |  | 
O=C1NC(=Cc2cccc(Cl)c2)C(=O)C1=NO [Example 9, 5-(3-Chlorobenzylidene)-pyrrolidine-2,3,4-trione 3-oxime] | 81% | 185 °C |  | 
COC(=C1NC(=O)C(=NO)C1=O)c1ccccc1 [Example 1, 5-(Methoxyphenylmethylene)-pyrrolidine-2,3,4-trione 3-oxime] |  | 174 °C |  | 
O=C1NC(=Cc2c(Cl)cccc2Cl)C(=O)C1=NO [Example 8, 5-(2,6-Dichlorobenzylidene)-pyrrolidine-2,3,4-trione 3-oxime] | 51% | 232 °C |  | 
O=C1NC(=C(Br)c2ccccc2)C(=O)C1=NO [Example 2, 5-(Bromophenylmethylene)-pyrrolidine-2,3,4-trione 3-oxime] |  | 158 °C | 430 nM | 36.3%
O=C1NC(=Cc2ccccc2Cl)C(=O)C1=NO [Example 4, 5-(2-Chlorobenzylidene)-pyrrolidine-2,3,4-trione 3-oxime] | 55% | 176 °C |  | 
